Here are results for 13 compounds from PubChem BioAssay AID328 (DTP/NCI, 2004).

The structures appear in SMILES notation. Inconclusive results and toxic doses are left out. Starred links: 1 amine or outer side, 2 acyl side, 3 side chain; linkers in the order of their positions; H or OH if unused. Positions of bridges follow the written chain, without caps; N, C: chain ends. Non-standard residues stand in square brackets, D forms with d. Residues, ends and D or L forms follow the SMILES beside them. Chains are numbered I, II in the order given. Actinocin(1to9) = Cc1c2oc3c(C)ccc(C(=O)[*:2])c3nc-2c(C(=O)[*:1])c(N)c1=O; X3 = O=C1CC(C(=O)[*:2])N([*:1])C1; NMeV = CN[CH](C(=O)O)C(C)C; Sar = CNCC(=O)O

This experiment has as its system BDF1 mice, P388 leukemia ip, median survival T/C. The experiment in a line: NCI In Vivo Anticancer Drug Screen. Data for tumor model P388 Leukemia (intraperitoneal) in B6D2F1 (BDF1) mice. As to conditions: endpoint: median survival time, higher = longer survival. The gist of the method: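 Reported as T/C, where T is the survival measurement in dosed animals and C the same measurement in vehicle controls.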

Setting [1] is: dose: 100.0 mg/kg/injection, schedule: Q01DX009 (ip), vehicle: Klucel (hydroxypropylcellulose) (HPC).
The mark [2] stands for this setting: dose: 100.0 mg/kg/injection, schedule: Q04DX003 (ip), vehicle: Klucel (hydroxypropylcellulose) (HPC).
The mark [3] stands for this setting: dose: 200.0 mg/kg/injection, schedule: Q01DX009 (ip), vehicle: Klucel (hydroxypropylcellulose) (HPC).
Where [4] appears, read: dose: 200.0 mg/kg/injection, schedule: Q04DX003 (ip), vehicle: Klucel (hydroxypropylcellulose) (HPC).
[5] abbreviates: dose: 400.0 mg/kg/injection, schedule: Q01DX009 (ip), vehicle: Klucel (hydroxypropylcellulose) (HPC).
Setting [6] is: dose: 400.0 mg/kg/injection, schedule: Q04DX003 (ip), vehicle: Klucel (hydroxypropylcellulose) (HPC).
The mark [7] stands for this setting: dose: 50.0 mg/kg/injection, schedule: Q01DX009 (ip), vehicle: saline with Tween-80.
The mark [8] stands for this setting: dose: 100.0 mg/kg/injection, schedule: Q01DX009 (ip), vehicle: saline with Tween-80.
[9] abbreviates: dose: 200.0 mg/kg/injection, schedule: Q01DX009 (ip), vehicle: saline with Tween-80.
Setting [10] is: dose: 25.0 mg/kg/injection, schedule: Q01DX009 (ip), vehicle: saline with Tween-80.
The mark [11] stands for this setting: dose: 37.5 mg/kg/injection, schedule: Q01DX009 (ip), vehicle: saline with Tween-80.

On to `CNC(=S)NNC(=O)C1CC1`, for which the T/C (dose: 50.0 mg/kg/injection, schedule: Q01DX005 (ip), vehicle: saline) is 94 % of control; the T/C (dose: 100.0 mg/kg/injection, schedule: Q01DX005 (ip), vehicle: saline) was 107 % of control; the T/C (dose: 200.0 mg/kg/injection, schedule: Q01DX005 (ip), vehicle: saline) is 94 % of control.

For `C[C@]12CCC(=O)C=C1CC[C@@H]1[C@@H]2C(=O)C[C@@]2(C)[C@H]1CC[C@]2(O)C(=O)CO`, the T/C under setting [1] is 108 % of control; the T/C under setting [2] is 110 % of control; the T/C under setting [3] is 108 % of control; the T/C under setting [4] is 115 % of control; the T/C under setting [5] is 87 % of control; the T/C under setting [6] was 110 % of control.

As for `OCC1OC(n2ccc3c2ncn2nnnc32)C(O)C1O` (centres undefined), the T/C (dose: 6.25 mg/kg/injection, schedule: Q01DX009 (ip), vehicle: saline) was 97 % of control; the T/C (dose: 12.5 mg/kg/injection, schedule: Q01DX009 (ip), vehicle: saline) was 94 % of control; the T/C (dose: 12.5 mg/kg/injection, schedule: Q04DX003 (ip), vehicle: saline) is 96 % of control; the T/C (dose: 25.0 mg/kg/injection, schedule: Q01DX009 (ip), vehicle: saline) was 94 % of control; the T/C (dose: 25.0 mg/kg/injection, schedule: Q04DX003 (ip), vehicle: saline) is 104 % of control; the T/C (dose: 50.0 mg/kg/injection, schedule: Q04DX003 (ip), vehicle: saline) is 111 % of control.

Turning to `O=C(/C=C/c1ccc(OCc2ccccc2)cc1)c1ccc(Br)cc1`, the T/C under setting [7] is 91 % of control, the T/C under setting [8] is 86 % of control and the T/C under setting [9] was 87 % of control.

As for `CCN(CC)c1cc(Cl)c(C=O)cc1Br`, the T/C under setting [2] is 104 % of control; the T/C under setting [3] was 100 % of control; the T/C under setting [4] was 95 % of control; the T/C under setting [5] was 95 % of control; the T/C under setting [6] was 100 % of control.

Take `O=c1onc(-c2ccc(Cl)cc2)c2ccccc12`: the T/C reads like this: under setting [10], 105 % of control; under setting [7], 94 % of control; under setting [8], 102 % of control.

Regarding `Cc1c2oc3c(C)ccc(C(=O)NC4C(=O)NC(C(C)C)C(=O)N5CCCC5C(=O)N(C)CC(=O)N(C)C(C(C)C)C(=O)OC4C)c3nc-2c(C(=O)NC2C(=O)NC(C(C)C)C(=O)N3CC(=O)CC3C(=O)N(C)CC(=O)N(C)C(C(C)C)C(=O)OC2C)c(N)c1=O` (centres undefined) (I: TV[X3][Sar][NMeV] / II: TVP[Sar][NMeV]; ester I:1-I:C, II:1-II:C; linker I:N-II:N via Actinocin(1to9); configuration not given here), the T/C (dose: 1.6 micrograms/kg/injection, schedule: Q01DX009 (ip), vehicle: water) is 120 % of control; the T/C (dose: 4.7 micrograms/kg/injection, schedule: Q04DX003 (ip), vehicle: water) was 163 % of control; the T/C (dose: 9.4 micrograms/kg/injection, schedule: Q04DX003 (ip), vehicle: water) was 162 % of control; the T/C (dose: 12.5 micrograms/kg/injection, schedule: Q01DX009 (ip), vehicle: water) is 172 % of control; the T/C (dose: 25.0 micrograms/kg/injection, schedule: Q01DX001 (ip), vehicle: water) is 155 % of control; the T/C (dose: 25.0 micrograms/kg/injection, schedule: Q01DX009 (ip), vehicle: water) was 120 % of control. Besides, the T/C by setting is: (dose: 37.5 micrograms/kg/injection, schedule: Q04DX003 (ip), vehicle: water) 175 % of control; (dose: 50.0 micrograms/kg/injection, schedule: Q01DX001 (ip), vehicle: water) 155 % of control; (dose: 75.0 micrograms/kg/injection, schedule: Q04DX003 (ip), vehicle: water) 86 % of control.

As for `O=C(NN=C1CCCCC1)c1ccccc1`, the T/C by setting is: (dose: 25.0 mg/kg/injection, schedule: Q04DX003 (ip), vehicle: Klucel (hydroxypropylcellulose) (HPC)) 100 % of control; (dose: 50.0 mg/kg/injection, schedule: Q01DX009 (ip), vehicle: Klucel (hydroxypropylcellulose) (HPC)) 100 % of control; (dose: 50.0 mg/kg/injection, schedule: Q04DX003 (ip), vehicle: Klucel (hydroxypropylcellulose) (HPC)) 100 % of control; (dose: 56.25 mg/kg/injection, schedule: Q01DX001 (ip), vehicle: Klucel (hydroxypropylcellulose) (HPC)) 100 % of control; under setting [1], 110 % of control; under setting [2], 86 % of control. Moreover, the T/C is 104 % of control (dose: 112.5 mg/kg/injection, schedule: Q01DX001 (ip), vehicle: Klucel (hydroxypropylcellulose) (HPC)); 104 % of control (dose: 150.0 mg/kg/injection, schedule: Q04DX003 (ip), vehicle: Klucel (hydroxypropylcellulose) (HPC)); 109 % of control (dose: 225.0 mg/kg/injection, schedule: Q01DX001 (ip), vehicle: Klucel (hydroxypropylcellulose) (HPC)); 95 % of control (dose: 225.0 mg/kg/injection, schedule: Q04DX003 (ip), vehicle: Klucel (hydroxypropylcellulose) (HPC)).

Consider `CCCCCCCCCC(=O)NC(C)C(O)c1ccccc1` (centres undefined), for which the T/C under setting [7] is 109 % of control, the T/C under setting [8] was 100 % of control and the T/C under setting [9] is 89 % of control.

Turning to `O=Cc1cc(O)ccc1[N+](=O)[O-]`, the T/C is, setting by setting: under setting [7], 95 % of control; under setting [8], 104 % of control; (dose: 100.0 mg/kg/injection, schedule: Q04DX003 (ip), vehicle: saline with Tween-80) 104 % of control; under setting [9], 100 % of control; (dose: 200.0 mg/kg/injection, schedule: Q04DX003 (ip), vehicle: saline with Tween-80) 90 % of control.

On to `Clc1nn2nnnc2c2ccccc12`, for which the T/C (dose: 10.0 mg/kg/injection, schedule: Q01DX009 (ip), vehicle: saline with Tween-80) is 102 % of control; the T/C (dose: 20.0 mg/kg/injection, schedule: Q01DX009 (ip), vehicle: saline with Tween-80) is 122 % of control; the T/C under setting [11] is 91 % of control.

In the case of `CC1(C)N=C(N)N=C(N)N1c1ccc(CNC(=O)Nc2ccc(S(=O)(=O)F)cc2)c(Cl)c1`, the T/C reads like this: (dose: 16.5 mg/kg/injection, schedule: Q01DX009 (ip), vehicle: saline with Tween-80) 176 % of control; under setting [10], 188 % of control; under setting [11], 185 % of control; (dose: 88.0 mg/kg/injection, schedule: Q04DX003 (ip), vehicle: saline with Tween-80) 186 % of control; (dose: 132.0 mg/kg/injection, schedule: Q04DX003 (ip), vehicle: saline with Tween-80) 157 % of control.

`COc1ccc(-c2oc3cc(OC4OC(C)C(O)C(O)C4O)c(O)c(O)c3c(=O)c2OC2OC(C)C(O)C(O)C2O)cc1` (centres undefined): the T/C is, setting by setting: (dose: 25.0 mg/kg/injection, schedule: Q01DX009 (ip), vehicle: saline + alcohol) 92 % of control; (dose: 50.0 mg/kg/injection, schedule: Q01DX009 (ip), vehicle: saline + alcohol) 92 % of control; (dose: 100.0 mg/kg/injection, schedule: Q01DX009 (ip), vehicle: saline + alcohol) 106 % of control.
